# According to patent US11992473B2, “Compositions and methods for diagnosis and treatment of conditions related to the quality of aging and longevity” (Epitracker, Inc., priority 2018, dated 2024):
# Columns and labels:
# Format in all cases: cell-based, human
# [1] = test system: Bronchial epithelial cells, dermal fibroblasts; experiment: BioMAP Diversity PLUS BF4T system (Th2 type lung inflammation)
# Method: (§1) This study examined activities of small molecules discovered in dolphin serum that had protective profiles against diseases of aging which can impact quality of life and longevity. These molecules were tested across 12 human primary cell-based systems as part of DiscoverX's BioMAP Diversity Plus program. These systems are designed to model complex human tissue and disease biology of the vasculature, skin, lung, and inflammatory tissues. Quantitative measurements of biomarker activities across this broad panel, along with comparative analysis of biological activities of known bioactive agents were used to predict and compare the efficacy and function of the four compounds. Compounds were tested at four concentrations (740 nm and 2.2, 6.7 and 20 μM).
# (§2) BioMAP panels consist of human primary cell-based systems designed to model different aspects of the human body in an in vitro format. The 12 systems in the Diversity PLUS panel allow test agent characterization in an unbiased way across a broad set of systems modeling various human disease states. BioMAP systems are constructed with one or more primary cell types from healthy human donors, with stimuli (such as cytokines or growth factors) added to capture relevant signaling networks that naturally occur in human tissue or pathological conditions. Vascular biology is modeled in both a Th1 (3C system) and a Th2 (4H system) inflammatory environment, as well as in a Th1 inflammatory state specific to arterial smooth muscle cells (CASM3C system). Additional systems recapitulate aspects of the systemic immune response including monocyte-driven Th1 inflammation (LPS system) or T cell stimulation (SAg system), chronic Th1 inflammation driven by macrophage activation (lMphg system) and the T cell-dependent activation of B cells that occurs in germinal centers (BT system). The BE3C system (Th1) and the BF4T system (Th2) represent airway inflammation of the lung, while the MyoF system models myofibroblast-lung tissue remodeling. Lastly, skin biology is addressed in the KF3CT system modeling Th1 cutaneous inflammation and the HDF3CGF system modeling wound healing.
# (§3) Each test agent generates a signature BioMAP profile that is created from the changes in protein biomarker readouts within individual system environments. Biomarker readouts (7-17 per system) are selected for therapeutic and biological relevance, are predictive for disease outcomes or specific drug effects and are validated using agents with known mechanism of action (MoA). Each readout is measured quantitatively by immune-based methods that detect protein (e.g., ELISA) or functional assays that measure proliferation and viability. BioMAP readouts are diverse and include cell surface receptors, cytokines, chemokines, matrix molecules and enzymes. In total, the Diversity PLUS panel contains 148 biomarker readouts that capture biological changes that occur within the physiological context of the particular BioMAP system. Specific BioMAP activities have been correlated to in vivo biology, and multiparameter BioMAP profiles have been used to distinguish compounds based on MoA and target selectivity across diverse physiological systems.
# (§4) The Diversity PLUS panel allows test agent characterization in an unbiased way across a broad set of systems modeling various human disease states. These systems are designed to model complex human tissue and disease biology of the vasculature, skin, lung, and inflammatory tissues. Quantitative measurements of 148 biomarker activities across this broad panel, along with comparative analysis of biological activities from known bioactive agents, were used to predict and compare the efficacy and function of each selected compound at four concentrations (740 nm and 2.2, 6.7 and 20 μM). […]
# [2] = test system: Lung fibroblasts; experiment: BioMAP Diversity PLUS MyoF system (myofibroblast differentiation and tissue remodeling)
# Method: as §1, §2, §3, §4
# [3] = test system: Peripheral blood mononuclear cells, B cells; experiment: BioMAP Diversity PLUS BT system (T cell dependent B cell activation)
# Method: as §1, §2
# (§5) Each test agent generates a signature BioMAP profile that is created from the changes in protein biomarker readouts within individual system environments. Biomarker readouts (7-17 per system) are selected for therapeutic and biological relevance, are predictive for disease outcomes or specific drug effects and are validated using agents with known mechanism of action (MoA). Each readout is measured quantitatively by immune-based methods that detect protein (e.g., ELISA) or functional assays that measure proliferation and viability. BioMAP readouts are diverse and include cell surface receptors, cytokines, chemokines, matrix molecules and enzymes.
# (§6) The Diversity PLUS panel allows test agent characterization in an unbiased way across a broad set of systems modeling various human disease states. These systems are designed to model complex human tissue and disease biology of the vasculature, skin, lung, and inflammatory tissues.
# (§7) BioMAP systems are constructed with one or more primary cell types from healthy human donors, with stimuli (such as cytokines or growth factors) added to capture relevant signaling networks that naturally occur in human tissue or pathological conditions. Vascular biology is modeled in both a Th1 (3C system) and a Th2 (4H system) inflammatory environment, as well as in a Th1 inflammatory state specific to arterial smooth muscle cells (CASM3C system). Additional systems recapitulate aspects of the systemic immune response including monocyte-driven Th1 inflammation (LPS system) or T cell stimulation (SAg system), chronic Th1 inflammation driven by macrophage activation (lMphg system) and the T cell-dependent activation of B cells that occurs in germinal centers (BT system).
# [4] = test system: Dermal fibroblasts; experiment: BioMAP Diversity PLUS HDF3CGF system (wound healing and matrix/tissue remodeling); settings: HDF3CGF system
# Method: as §1, §2, §5, §6, §7
# [5] = test system: Macrophages, venular endothelial cells; experiment: BioMAP Diversity PLUS lMphg system (Th1 type chronic inflammation, macrophage activation); settings: /Mphg system
# Method: as §1, §2, §3, §4
# [6] = test system: Bronchial epithelial cells; experiment: BioMAP Diversity PLUS BE3C system (Th1 type lung inflammation)
# Method: as §1, §2, §3, §4
# [7] = test system: Venular endothelial cells, peripheral blood mononuclear cells; experiment: BioMAP Diversity PLUS LPS system (Th1 type chronic inflammation, monocyte activation)
# Method: as §1, §2, §5, §6, §7
# [8] = test system: Venular endothelial cells, peripheral blood mononuclear cells; experiment: BioMAP Diversity PLUS SAg system (T cell stimulation, Th1 type chronic inflammation); settings: for Significant log10 reduction compared to nontreated controls: CD40: SAg system
# Method: as §1, §2, §3, §4
molecule,measurement,setting,value
CCCCC/C=C\C/C=C\C/C=C\C/C=C\CCCC(=O)O[C@H](COC(=O)CCCCCCCCCCCCCCC)COP(=O)([O-])OCC[N+](C)(C)C [1-palmitoyl-2-arachidonoyl-GPC],Significant log10 reduction compared to nontreated controls: Eotaxin 3 (CCL26),[1]; 2.2 μM,−0.11 log10
same,Significant log10 reduction compared to nontreated controls: Eotaxin 3 (CCL26),[1]; 6.7 μM,−0.24 log10
same,Significant log10 reduction compared to nontreated controls: Plasminogen activation inhibitor 1 (PAI-1),[1]; 6.7 μM,−0.07 log10
same,Significant log10 reduction compared to nontreated controls: Eotaxin 3 (CCL26),[1]; 20.0 μM,−0.58 log10
same,Significant log10 reduction compared to nontreated controls: Plasminogen activation inhibitor 1 (PAI-1),[1]; 20.0 μM,−0.19 log10
same,Significant log10 reduction compared to nontreated controls: Alpha smooth muscle actin (αSMA),[2]; 0.7 μM,−0.07 log10
same,Significant log10 reduction compared to nontreated controls: Alpha smooth muscle actin (αSMA),[2]; 2.2 μM,−0.09 log10
same,Significant log10 reduction compared to nontreated controls: Alpha smooth muscle actin (αSMA),[2]; 6.7 μM,−0.10 log10
same,Significant log10 reduction compared to nontreated controls: Alpha smooth muscle actin (αSMA),[2]; 20.0 μM,−0.18 log10
same,Significant log10 reduction compared to nontreated controls: Secreted interleukin 17F (IL-17F),"[3]; BT system, 2.2 μM",−0.12 log10
same,Significant log10 reduction compared to nontreated controls: Secreted interleukin 2 (IL-2),"[3]; BT system, 20.0 μM",−0.27 log10
same,Significant log10 reduction compared to nontreated controls: Secreted interleukin 17F (IL-17F),"[3]; BT system, 20.0 μM",−0.24 log10
same,Significant log10 reduction compared to nontreated controls: Secreted tumor necrosis factor alpha (TNFα),"[3]; BT system, 20.0 μM",−0.16 log10
same,Significant log10 reduction compared to nontreated controls: Plasminogen activation inhibitor 1 (PAI-1),[4]; 20.0 μM,−0.11 log10
same,Significant log10 reduction compared to nontreated controls: Monocyte chemoattractant protein 1 (MCP-1),[5]; 2.2 μM,−0.12 log10
same,Significant log10 reduction compared to nontreated controls: Monocyte chemoattractant protein 1 (MCP-1),[5]; 6.7 μM,−0.13 log10
same,Significant log10 reduction compared to nontreated controls: Secreted interleukin 10 (IL-10),[5]; 6.7 μM,−0.18 log10
same,Significant log10 reduction compared to nontreated controls: CD69,[5]; 20.0 μM,−0.11 log10
same,Significant log10 reduction compared to nontreated controls: Monocyte chemoattractant protein 1 (MCP-1),[5]; 20.0 μM,−0.18 log10
same,Significant log10 reduction compared to nontreated controls: Keratin 8/18,[6]; 6.7 μM,−0.08 log10
same,Significant log10 reduction compared to nontreated controls: Interleukin 8 (IL-8)/CXCL8,[6]; 20.0 μM,−0.12 log10
same,Significant log10 reduction compared to nontreated controls: Matrix metalloproteinase 9 (MMP-9),[6]; 20.0 μM,−0.11 log10
same,Significant log10 reduction compared to nontreated controls: Plasminogen activation inhibitor 1 (PAI-1),[6]; 20.0 μM,−0.12 log10
"C=CCCCCCCCCC(=O)O [10-undecanoate (C11:1n1), 10-undecanoate]",Significant log10 reduction compared to nontreated controls: Secreted interleukin 17A (IL-17A),"[3]; BT system, 2.2 μM",−0.25 log10
same,Significant log10 reduction compared to nontreated controls: Secreted interleukin 17A (IL-17A),"[3]; BT system, 20.0 μM",−0.20 log10
same,Significant log10 reduction compared to nontreated controls: Secreted tumor necrosis factor alpha (TNFα),"[3]; BT system, 20.0 μM",−0.12 log10
same,interleukin 17A (IL-17A),"[3]; human cell system mimicking asthma, autoimmunity and allergies (FIG. 5)",lowered
same,Significant log10 reduction compared to nontreated controls: Secreted prostaglandin E2 (PGE2),"[7]; LPS system, 0.7 μM",−0.11 log10
same,Significant log10 reduction compared to nontreated controls: Secreted prostaglandin E2 (PGE2),"[7]; LPS system, 2.2 μM",−0.08 log10
same,Significant log10 reduction compared to nontreated controls: Secreted prostaglandin E2 (PGE2),"[7]; LPS system, 6.7 μM",−0.20 log10
same,Significant log10 reduction compared to nontreated controls: CD40,"[7]; LPS system, 20.0 μM",−0.11 log10
same,secretion of prostaglandin E2 (PGE2),[7]; human cell system mimicking T-cell and monocyte driven chronic inflammation and cardiovascular diseases (FIG. 4),lowered
same,Significant log10 reduction compared to nontreated controls: Macrophage colony-stimulating factor (M-CSF),[4]; 0.7 μM,−0.11 log10
same,Significant log10 reduction compared to nontreated controls: Macrophage colony-stimulating factor (M-CSF),[4]; 2.2 μM,−0.07 log10
same,Significant log10 reduction compared to nontreated controls: CD40,[8]; 0.7 μM,−0.07 log10
same,Significant log10 reduction compared to nontreated controls: CD40,[8]; 2.2 μM,−0.14 log10
same,Significant log10 reduction compared to nontreated controls: CD40,[8]; 6.7 μM,−0.09 log10
same,CD40,"[8]; human cell system mimicking T-cell driven chronic inflammation and autoimmune diseases, 740 nm, 2.2 μM, and 6.7 μM (FIG. 3)",lowered
same,T cell proliferation,"[8]; human cell system mimicking T-cell driven chronic inflammation and autoimmune diseases, concentrations ranging from 740 nm to 6.7 μM (FIG. 2)",decreased
same,Significant log10 reduction compared to nontreated controls: Secreted interleukin 10 (IL-10),[5]; 20.0 μM,−0.21 log10
same,Significant log10 reduction compared to nontreated controls: Tissue plasminogen activator (tPA),[6]; 2.2 μM,−0.08 log10
same,Significant log10 reduction compared to nontreated controls: Tissue plasminogen activator (tPA),[6]; 6.7 μM,−0.11 log10
same,Significant log10 reduction compared to nontreated controls: Tissue plasminogen activator (tPA),[6]; 20.0 μM,−0.12 log10
lignoceroylcarnitine [Lignoceroylcarnitine (C24)],Significant log10 reduction compared to nontreated controls: Keratin 8/18,[1]; 0.7 μM,−0.07 log10
same,Significant log10 reduction compared to nontreated controls: Keratin 8/18,[1]; 2.2 μM,−0.07 log10
same,Significant log10 reduction compared to nontreated controls: Keratin 8/18,[1]; 6.7 μM,−0.09 log10
same,Significant log10 reduction compared to nontreated controls: Keratin 8/18,[1]; 20.0 μM,−0.11 log10
same,Significant log10 reduction compared to nontreated controls: Alpha smooth muscle actin (αSMA),[2]; 0.7 μM,−0.08 log10
same,Significant log10 reduction compared to nontreated controls: Alpha smooth muscle actin (αSMA),[2]; 2.2 μM,−0.13 log10
same,Significant log10 reduction compared to nontreated controls: Alpha smooth muscle actin (αSMA),[2]; 6.7 μM,−0.18 log10
same,Significant log10 reduction compared to nontreated controls: Alpha smooth muscle actin (αSMA),[2]; 20.0 μM,−0.20 log10
same,Significant log10 reduction compared to nontreated controls: B cell proliferation,"[3]; BT system, 0.7 μM",−0.15 log10
same,Significant log10 reduction compared to nontreated controls: B cell proliferation,"[3]; BT system, 2.2 μM",−0.09 log10
same,Significant log10 reduction compared to nontreated controls: Secreted tumor necrosis factor alpha (TNFα),"[3]; BT system, 2.2 μM",−0.10 log10
same,Significant log10 reduction compared to nontreated controls: B cell proliferation,"[3]; BT system, 6.7 μM",−0.09 log10
same,Significant log10 reduction compared to nontreated controls: Secreted interleukin 2 (IL-2),"[3]; BT system, 6.7 μM",−0.11 log10
same,Significant log10 reduction compared to nontreated controls: B cell proliferation,"[3]; BT system, 20.0 μM",−0.07 log10
same,Significant log10 reduction compared to nontreated controls: Secreted interleukin 6 (IL-6),"[3]; BT system, 20.0 μM",−0.13 log10
same,Significant log10 reduction compared to nontreated controls: Secreted interleukin 17A (IL-17A),"[3]; BT system, 20.0 μM",−0.25 log10
same,Significant log10 reduction compared to nontreated controls: Monocyte chemoattractant protein 1 (MCP-1),[5]; 2.2 μM,−0.29 log10
same,Significant log10 reduction compared to nontreated controls: Monocyte chemoattractant protein 1 (MCP-1),[5]; 6.7 μM,−0.16 log10
same,Significant log10 reduction compared to nontreated controls: Monocyte chemoattractant protein 1 (MCP-1),[5]; 20.0 μM,−0.11 log10
same,Significant log10 reduction compared to nontreated controls: Interferon-inducible T cell alpha chemoattractant (I-TAC)/CXCL11,[6]; 0.7 μM,−0.05 log10
same,Significant log10 reduction compared to nontreated controls: Interferon-inducible T cell alpha chemoattractant (I-TAC)/CXCL11,[6]; 2.2 μM,−0.12 log10
